The record followed here is ChEMBL document CHEMBL3991601, “The target landscape of clinical kinase drugs” (Science, 2017).

The term Kd denotes a measure of binding affinity in units of concentration.

The target of test [1] is Activin receptor type-2B (Homo sapiens, UniProt Q13705).
Test [2] concerns the target T1, AarF domain-containing protein kinase 1 (Homo sapiens, UniProt Q86TW2).
T1 sequence (Q86TW2 whole entry): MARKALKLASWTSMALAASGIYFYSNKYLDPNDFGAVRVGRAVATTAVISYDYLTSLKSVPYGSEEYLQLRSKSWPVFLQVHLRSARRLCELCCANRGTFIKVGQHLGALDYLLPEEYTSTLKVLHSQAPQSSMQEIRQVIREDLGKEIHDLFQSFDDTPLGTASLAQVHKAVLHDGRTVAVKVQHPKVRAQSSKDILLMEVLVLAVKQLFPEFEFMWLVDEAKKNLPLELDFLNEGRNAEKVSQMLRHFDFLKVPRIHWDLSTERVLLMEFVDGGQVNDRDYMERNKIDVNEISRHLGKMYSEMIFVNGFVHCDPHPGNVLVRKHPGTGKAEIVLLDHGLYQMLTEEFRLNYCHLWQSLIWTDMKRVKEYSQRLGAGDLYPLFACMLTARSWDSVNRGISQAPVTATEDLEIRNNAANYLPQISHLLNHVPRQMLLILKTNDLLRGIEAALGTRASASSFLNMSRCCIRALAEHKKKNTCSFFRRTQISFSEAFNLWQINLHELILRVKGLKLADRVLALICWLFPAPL

The target in test [3] is Tyrosine-protein kinase FRK (Homo sapiens, UniProt P42685).
For test [4], the target named is GTP-binding protein 4 (Homo sapiens, UniProt Q9BZE4).
In test [5] the target is T2, Mitogen-activated protein kinase kinase kinase 2 (Homo sapiens, UniProt Q9Y2U5).
T2 sequence (Q9Y2U5 whole entry): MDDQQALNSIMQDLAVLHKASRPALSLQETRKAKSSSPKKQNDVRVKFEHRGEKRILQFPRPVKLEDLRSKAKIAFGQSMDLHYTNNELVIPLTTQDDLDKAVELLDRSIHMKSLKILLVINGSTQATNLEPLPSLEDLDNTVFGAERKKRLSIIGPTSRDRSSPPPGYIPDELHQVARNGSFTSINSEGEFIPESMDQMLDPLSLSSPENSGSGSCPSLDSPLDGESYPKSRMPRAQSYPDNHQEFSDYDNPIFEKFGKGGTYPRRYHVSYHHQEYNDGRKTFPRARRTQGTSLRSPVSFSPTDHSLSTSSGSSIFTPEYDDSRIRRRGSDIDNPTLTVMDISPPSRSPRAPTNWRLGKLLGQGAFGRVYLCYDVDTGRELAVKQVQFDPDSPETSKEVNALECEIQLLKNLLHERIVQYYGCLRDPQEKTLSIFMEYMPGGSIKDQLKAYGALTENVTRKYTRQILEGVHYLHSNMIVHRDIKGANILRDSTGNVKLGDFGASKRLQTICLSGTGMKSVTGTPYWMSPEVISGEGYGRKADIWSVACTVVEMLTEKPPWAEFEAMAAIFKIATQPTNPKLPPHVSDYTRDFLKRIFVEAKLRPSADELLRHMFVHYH

In test [6] the target is T3, MAP kinase-activated protein kinase 5 (Homo sapiens, UniProt Q8IW41).
T3 sequence (Q8IW41 whole entry): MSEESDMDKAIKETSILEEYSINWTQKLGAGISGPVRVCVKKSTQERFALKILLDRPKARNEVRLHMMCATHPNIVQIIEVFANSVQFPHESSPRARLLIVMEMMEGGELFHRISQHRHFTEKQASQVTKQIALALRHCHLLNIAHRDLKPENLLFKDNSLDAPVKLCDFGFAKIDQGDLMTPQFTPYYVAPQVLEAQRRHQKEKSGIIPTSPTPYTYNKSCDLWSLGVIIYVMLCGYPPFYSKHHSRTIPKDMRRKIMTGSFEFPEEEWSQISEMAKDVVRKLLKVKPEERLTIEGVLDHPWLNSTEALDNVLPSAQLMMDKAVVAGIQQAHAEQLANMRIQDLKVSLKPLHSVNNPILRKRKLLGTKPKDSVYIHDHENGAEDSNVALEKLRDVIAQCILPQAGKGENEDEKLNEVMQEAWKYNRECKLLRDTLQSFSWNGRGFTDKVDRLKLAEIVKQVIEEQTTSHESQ

The target of test [7] is T4, Bifunctional phosphoribosylaminoimidazole carboxylase/phosphoribosylaminoimidazole succinocarboxamide synthetase (Homo sapiens, UniProt P22234).
T4 sequence (P22234 whole entry): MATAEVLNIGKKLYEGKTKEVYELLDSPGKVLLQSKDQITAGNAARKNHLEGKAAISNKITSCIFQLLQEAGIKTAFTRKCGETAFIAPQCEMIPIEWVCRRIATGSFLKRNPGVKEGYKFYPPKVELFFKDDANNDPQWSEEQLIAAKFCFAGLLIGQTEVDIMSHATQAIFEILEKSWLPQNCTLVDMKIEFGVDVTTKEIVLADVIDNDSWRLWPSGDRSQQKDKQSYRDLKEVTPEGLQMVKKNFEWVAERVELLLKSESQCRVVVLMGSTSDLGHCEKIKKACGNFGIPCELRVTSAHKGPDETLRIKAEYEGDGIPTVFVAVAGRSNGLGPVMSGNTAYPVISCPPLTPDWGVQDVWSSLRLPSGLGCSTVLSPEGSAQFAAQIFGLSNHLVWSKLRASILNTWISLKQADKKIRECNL

In test [8] the target is Protein kinase C alpha type (Homo sapiens, UniProt P17252).
The target in test [9] is T5, Ras-related protein Rab-10 (Homo sapiens, UniProt P61026).
T5 sequence (P61026 whole entry): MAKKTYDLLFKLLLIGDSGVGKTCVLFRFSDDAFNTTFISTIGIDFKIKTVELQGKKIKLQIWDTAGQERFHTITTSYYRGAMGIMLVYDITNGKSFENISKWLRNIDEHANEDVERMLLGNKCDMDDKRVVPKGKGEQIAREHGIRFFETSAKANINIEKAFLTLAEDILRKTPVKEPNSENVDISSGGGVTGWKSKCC

Calls of active or inactive are those of the source. A value given as a limit tells only on which side of the number the result lay.
Also: in the data inactive means no Kd found up to 30 µM.

Activin receptor type-2B, sequence (Q13705 whole entry, the tested form may be a part): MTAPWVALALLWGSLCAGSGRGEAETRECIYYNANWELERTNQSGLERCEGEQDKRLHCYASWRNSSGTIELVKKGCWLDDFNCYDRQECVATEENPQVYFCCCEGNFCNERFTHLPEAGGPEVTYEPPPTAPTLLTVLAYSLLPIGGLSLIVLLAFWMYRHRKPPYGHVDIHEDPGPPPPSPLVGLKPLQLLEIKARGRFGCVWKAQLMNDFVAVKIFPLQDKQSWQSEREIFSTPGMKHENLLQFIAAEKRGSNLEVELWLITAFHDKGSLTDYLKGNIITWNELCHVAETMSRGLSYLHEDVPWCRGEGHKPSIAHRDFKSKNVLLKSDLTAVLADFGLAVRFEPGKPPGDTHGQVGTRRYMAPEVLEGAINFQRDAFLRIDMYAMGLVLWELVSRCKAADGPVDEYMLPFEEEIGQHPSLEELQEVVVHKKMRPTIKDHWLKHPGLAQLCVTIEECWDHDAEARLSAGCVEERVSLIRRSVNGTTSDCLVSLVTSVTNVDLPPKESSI
Tyrosine-protein kinase FRK, sequence (P42685 whole entry): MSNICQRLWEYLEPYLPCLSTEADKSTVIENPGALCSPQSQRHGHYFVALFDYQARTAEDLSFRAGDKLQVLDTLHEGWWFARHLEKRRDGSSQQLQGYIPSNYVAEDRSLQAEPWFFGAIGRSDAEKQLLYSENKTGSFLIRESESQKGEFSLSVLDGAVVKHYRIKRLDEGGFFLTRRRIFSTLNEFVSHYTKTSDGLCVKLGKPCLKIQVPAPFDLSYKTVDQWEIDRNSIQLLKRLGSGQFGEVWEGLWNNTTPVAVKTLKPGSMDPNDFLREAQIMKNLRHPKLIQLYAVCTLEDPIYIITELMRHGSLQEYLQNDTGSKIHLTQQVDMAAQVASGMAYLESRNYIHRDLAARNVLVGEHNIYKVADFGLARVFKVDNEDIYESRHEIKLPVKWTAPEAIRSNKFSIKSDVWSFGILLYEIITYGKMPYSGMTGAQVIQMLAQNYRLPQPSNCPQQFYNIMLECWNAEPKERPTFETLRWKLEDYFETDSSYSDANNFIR

For the compound `Cc1ccc(NC(=O)c2ccc(CN3CC[C@H](N(C)C)C3)c(C(F)(F)F)c2)cc1Nc1nccc(-c2cncnc2)n1` [BAFETINIB], the Kd in test [1] was > 30 µM (inactive); in test [2], > 30 µM (inactive); in [3], 0.428 µM (active); in test [4], > 30 µM (inactive); in test [5], > 30 µM (inactive); in [6], > 30 µM (inactive). The Kd in [7], in test [8] and in [9] was > 30 µM (inactive) throughout.
With `CC(C)Nc1cc(-c2c[nH]c(C(=O)N[C@H](CO)c3cccc(Cl)c3)c2)c(Cl)cn1` [ULIXERTINIB], the Kd in test [1], in test [2], in test [3], in [4], in test [5] and in test [6] was > 30 µM (inactive) each time. Besides, the Kd in [7], in test [8] and in test [9] was > 30 µM (inactive) in each case.
For `O=C1NC(=O)/C(=C/c2ccc3nccc(-c4ccncc4)c3c2)S1` [GSK-1059615], the Kd in test [1], in test [2], in [3], in test [4], in [5] and in test [6] was > 30 µM (inactive) each time. Moreover, the Kd in test [7], in test [8] and in [9] was > 30 µM (inactive) in each case.
Take `COc1cc(CCc2cc(NC(=O)c3ccc(N4C[C@@H](C)N[C@@H](C)C4)cc3)n[nH]2)cc(OC)c1` [AZD-4547]: the Kd in [1], in [2], in [3], in test [4], in test [5] and in test [6] was > 30 µM (inactive) throughout. Moreover, the Kd in test [7], in test [8] and in test [9] was > 30 µM (inactive) each time.
On to `C[C@@H]1CN(Cc2ccc(F)cc2)[C@@H](C)CN1C(=O)c1cc2c(C(=O)C(=O)N(C)C)cn(C)c2cc1Cl` [TALMAPIMOD], for which the Kd in test [1], in test [2], in [3], in [4], in [5] and in test [6] was > 30 µM (inactive) throughout. For the same compound, the Kd in test [7], in [8] and in [9] was > 30 µM (inactive) each time.
On to `CCS(=O)(=O)N1CC(CC#N)(n2cc(-c3ncnc4[nH]ccc34)cn2)C1` [BARICITINIB], for which the Kd in test [1], in test [2], in test [3], in [4], in test [5] and in test [6] was > 30 µM (inactive) each time. Further, the Kd in test [7] is > 30 µM (inactive); in test [8] it was 2.07 µM (active); in [9], > 30 µM (inactive).
As to `COc1ccc(-c2ccc3c(N4CCOC[C@@H]4C)nc(N4CCOC[C@@H]4C)nc3n2)cc1CO` [AZD-8055], the Kd in [1], in [2], in [3], in test [4], in test [5] and in test [6] was > 30 µM (inactive) throughout. The Kd in test [7], in test [8] and in test [9] was > 30 µM (inactive) in each case.
Consider `CN1CC[C@@H](c2c(O)cc(O)c3c(=O)cc(-c4ccccc4Cl)oc23)[C@@H]1CO`, for which the Kd in [1], in test [2], in [3], in test [4], in [5] and in [6] was > 30 µM (inactive) in each case. Further, the Kd in test [7], in test [8] and in test [9] was > 30 µM (inactive) in each case.
`C=CC(=O)N1CCC(Oc2cc3c(Nc4ccc(Cl)c(Cl)c4F)ncnc3cc2OC)CC1` [POZIOTINIB]: the Kd in [1], in [2], in test [3], in test [4], in test [5] and in test [6] was > 30 µM (inactive) throughout. Also, the Kd in [7], in test [8] and in [9] was > 30 µM (inactive) throughout.
As to `CNC(=O)c1ccc(-c2cnc3ncc(Cc4ccc5ncccc5c4)n3n2)cc1F` [CAPMATINIB], the Kd in [1], in test [2], in test [3], in test [4], in test [5] and in test [6] was > 30 µM (inactive) each time. Moreover, the Kd in test [7] and in test [8] was > 30 µM (inactive) each time.
`CCn1c(=O)c(-c2cc[nH]n2)cc2c(C)nc(N)nc21` [VOXTALISIB]: the Kd in test [1], in [2], in test [3], in [5], in [6] and in test [7] was > 30 µM (inactive) throughout. The Kd in [8] and in test [9] was > 30 µM (inactive) throughout.
Consider `COC(=O)[C@@]1(O)C[C@H]2O[C@]1(C)n1c3ccccc3c3c4c(c5c6ccccc6n2c5c31)C(=O)NC4` [K-252A], for which the Kd in test [1] was > 30 µM (inactive); in test [2], 6.09 µM (active); in test [3], > 30 µM (inactive); in [4] it was > 30 µM (inactive); in [5], 4.12 µM (active); in [6], > 30 µM (inactive). The Kd in test [7] and in test [9] was > 30 µM (inactive) each time.
